Reference: publication PMC8952364, “Polyphenols as Inhibitors of Antibiotic Resistant Bacteria—Mechanisms Underlying Rutin Interference with Bacterial Virulence” (Pharmaceuticals, 2022)
Values after ≈ are worked out from the molar mass of the structure shown. Where two headings read alike, the source gives them in different places.

What was measured:
[1] = system: P. aeruginosa IBRS P001; assay: Antimicrobial microdilution assay (MIC/MBC); format: cell-based, Pseudomonas aeruginosa; conditions: Pseudomonas aeruginosa, IBRSP001; for MIC: 37 °C, 24 h, read-out: MIC; for MBC: subcultivation, 24 h at 37 °C, read-out: MBC
Method: (§1) The bacterial suspension (0.5 Mc Farland) was prepared, and twenty-fold dilutions of these suspensions were mixed in a 1:10 ratio with the corresponding polyphenol dilution (0.0039–1 mg/mL). Microtiter plates were incubated at 37 °C for 24 h. The lowest concentrations without visible growth (under a binocular microscope) were defined as MICs. The bactericidal concentrations (MBCs) were determined by serial subcultivation of 2 μL of the well’s content and further incubation for 24 h at 37 °C. Streptomycin (SigmaAldrich, Darmstadt, Germany) was used as a positive control. The polyphenols were obtained from Extrasynthese, Rhone, France (rutin, isoquercitrin) and SigmaAldrich, Germany (hesperetin, hesperidin, naringenin, naringin, taxifolin, morin, chlorogenic acid, ferulic acid, p-coumaric acid, and gallic acid). The stock compounds were prepared in ethanol (30%), and adequate ethanol concentrations were used as the negative control in the assays. Experiments were done in triplicate.

[2] = system: P. aeruginosa MMA83; assay: Antimicrobial microdilution assay (MIC/MBC); format: cell-based, Pseudomonas aeruginosa; conditions: Pseudomonas aeruginosa, MMA83; for MIC: 37 °C, 24 h, read-out: MIC; for MBC: subcultivation, 24 h at 37 °C, read-out: MBC
Method: as §1

[3] = system: A. xylosoxidans 37F; assay: Antimicrobial microdilution assay (MIC/MBC); format: cell-based, Achromobacter xylosoxidans; conditions: Achromobacter xylosoxidans, 37F; for MIC: 37 °C, 24 h, read-out: MIC; for MBC: subcultivation, 24 h at 37 °C, read-out: MBC
Method: as §1

[4] = system: Methicillin resistant S. aureus IBRS MRSA 011; assay: Antimicrobial microdilution assay (MIC/MBC); format: cell-based, Staphylococcus aureus; conditions: for MBC: subcultivation, 24 h at 37 °C, read-out: MBC
Method: as §1

[5] = system: S. infantis 1371/1; assay: Antimicrobial microdilution assay (MIC/MBC); format: cell-based, Salmonella Infantis; conditions: Salmonella enterica, 1371/1; for MIC: 37 °C, 24 h, read-out: MIC; for MBC: subcultivation, 24 h at 37 °C, read-out: MBC
Method: as §1

[6] = system: K. pneumoniae Ni9; assay: Antimicrobial microdilution assay (MIC/MBC); format: cell-based, Klebsiella pneumoniae; conditions: Klebsiella pneumoniae, NI9; for MIC: 37 °C, 24 h, read-out: MIC; for MBC: subcultivation, 24 h at 37 °C, read-out: MBC
Method: as §1

[7] = system: K. pneumoniae IT977; assay: Antimicrobial microdilution assay (MIC/MBC); format: cell-based, Klebsiella pneumoniae; conditions: Klebsiella pneumoniae, IT977; for MIC: 37 °C, 24 h, read-out: MIC; for MBC: subcultivation, 24 h at 37 °C, read-out: MBC
Method: as §1

[8] = system: MRSA T144; design: method as in PMID 31385700; conditions: cited from earlier work
[9] = system: E. coli IBRS E003; assay: Antimicrobial microdilution assay (MIC/MBC); format: cell-based, Escherichia coli; conditions: Escherichia coli, IBRSE003; for MIC: 37 °C, 24 h, read-out: MIC; for MBC: subcultivation, 24 h at 37 °C, read-out: MBC
Method: as §1

[10] = system: E. coli IMD989; assay: Antimicrobial microdilution assay (MIC/MBC); format: cell-based, Escherichia coli; conditions: Escherichia coli, IMD989; for MIC: 37 °C, 24 h, read-out: MIC; for MBC: subcultivation, 24 h at 37 °C, read-out: MBC
Method: as §1

[11] = system: A. baumannii 6077/12; assay: Antimicrobial microdilution assay (MIC/MBC); format: cell-based, Acinetobacter baumannii; conditions: Acinetobacter baumannii, 6077/12; for MIC: 37 °C, 24 h, read-out: MIC; for MBC: subcultivation, 24 h at 37 °C, read-out: MBC
Method: as §1

[12] = system: A. baumannii S2/2; assay: Antimicrobial microdilution assay (MIC/MBC); format: cell-based, Acinetobacter baumannii; conditions: Acinetobacter baumannii, S2/2; for MIC: 37 °C, 24 h, read-out: MIC; for MBC: subcultivation, 24 h at 37 °C, read-out: MBC
Method: as §1

[13] = system: HaCaT cells; assay: Cytotoxicity in HaCaT cell line (crystal violet assay); format: cell-based, human; conditions: Homo sapiens; HaCaT, 24 h treatment, crystal violet; read-out: IC50 (compound concentration that inhibited 50% of the cell growth)
Method: For determination of the polyphenols’ cytotoxic effect, a crystal violet assay was used, with modifications. The cytotoxic effect of polyphenols was analyzed on spontaneously immortalized human skin keratinocytes (HaCaT, AddexBio No. T0020001, San Diego, CA, USA) cell lines. […] Cells (1 × 10^4 cells/well) were seeded in a 96-well plate (Sarstedt, Nümbrecht, Germany) 24 h before treatment. […] Cells were incubated with the compounds for 24 h. […] After crystal violet was removed, the plates were washed in a stream of tap water and left to air-dry at room temperature for 24 h. The absorbance was measured in a microplate reader (Multiskan™ FC Microplate Photometer, Thermo Scientific™) at 590 nm. The results were expressed as IC50 value in μg/mL. The criterion used to categorize the cytotoxic activity polyphenols was as follows: […] All analyses were performed in triplicate; each replicate was also quantified three times. Data were expressed as mean standard deviation, where applicable.

[14] = system: eleven antibiotic resistant strains of bacteria; assay: Antimicrobial assay, summary over the examined strains; format: cell-based; conditions: antibiotic resistant strains of Table 1; read-out: lowest MIC among the examined strains
Method: as §1

[15] = system: P. aeruginosa IBRS P001 biofilm; assay: Crystal violet antibiofilm assay (biofilm formation); format: cell-based, Pseudomonas aeruginosa; conditions: MIC and sub-MIC, 24 h, crystal violet, Figure 1
Method: After incubation, each well was washed twice with sterile PBS (phosphate-buffered saline, pH 7.4) and fixed with methanol for 10 min. After removal of methanol the plate was air-dried. The biofilm was stained with 0.1% crystal violet (Bio-Merieux, Marcy l’Etoile, France) for 30 min. The plate was washed with water, air dried, and the stain was dissolved with 200 μL of 96% ethanol (Zorka, Sabac, Serbia). The absorbance was read at 620 nm on a Multiskan™ FC microplate photometer (Thermo Scientific™, Waltham, MA, USA). The results are presented as biofilm forming capacity (%) compared to control.

[16] = system: S. aureus USA300; design: method as in PMID 34295320; conditions: methicillin resistant strain; cited from earlier work
[17] = Staphylococcus aureus, MRSA, 37 °C, 24 h, read-out: MIC

Row | Compound | MIC [1] | MBC [1] | MIC [2] | MBC [2] | MIC [3] | MBC [3] | MIC [4, 17] | MBC ([4]; Staphylococcus aureus, MRSA) | MIC [5] | MBC [5] | MIC [6] | MBC [6] | MIC [7] | MBC [7] | MIC [9] | MBC [9] | MIC [10] | MBC [10] | MIC [11] | MBC [11] | also measured
1 | O=c1c(O)c(-c2ccc(O)cc2O)oc2cc(O)cc(O)c12 [Morin, morin] | 120 µg/mL (≈ 397 µM) | 250 µg/mL (≈ 827 µM) | 1000 µg/mL (≈ 3310 µM) | 1000 µg/mL (≈ 3310 µM) | 500 µg/mL (≈ 1650 µM) | 1000 µg/mL (≈ 3310 µM) | 120 µg/mL (≈ 397 µM) | 250 µg/mL (≈ 827 µM) | > 1000 µg/mL | > 1000 µg/mL | 500 µg/mL (≈ 1650 µM) | 1000 µg/mL (≈ 3310 µM) | > 1000 µg/mL | > 1000 µg/mL | 250 µg/mL (≈ 827 µM) | 500 µg/mL (≈ 1650 µM) | > 1000 µg/mL | > 1000 µg/mL | 500 µg/mL (≈ 1650 µM) | 500 µg/mL (≈ 1650 µM) | MIC ([4]; Staphylococcus aureus, MRSA, restated in the discussion, read-out: MIC): 125 µg/mL (≈ 414 µM); MIC [8]: 32 µg/mL (≈ 106 µM); MIC [12]: 500 µg/mL (≈ 1650 µM); MBC [12]: 500 µg/mL (≈ 1650 µM); IC50 [13]: 347 ± 16 µg/mL (≈ 1150 µM)
2 | O=C1c2c(O)cc(O)cc2OC(c2ccc(O)c(O)c2)C1O (stereo not shown) [Taxifolin, taxifolin] | 250 µg/mL (≈ 822 µM) | 500 µg/mL (≈ 1640 µM) | 1000 µg/mL (≈ 3290 µM) | > 1000 µg/mL | 1000 µg/mL (≈ 3290 µM) | 1000 µg/mL (≈ 3290 µM) | 250 µg/mL (≈ 822 µM) | 500 µg/mL (≈ 1640 µM) | > 1000 µg/mL | > 1000 µg/mL | 1000 µg/mL (≈ 3290 µM) | 1000 µg/mL (≈ 3290 µM) | > 1000 µg/mL | > 1000 µg/mL | 500 µg/mL (≈ 1640 µM) | 1000 µg/mL (≈ 3290 µM) | 1000 µg/mL (≈ 3290 µM) | 1000 µg/mL (≈ 3290 µM) | 500 µg/mL (≈ 1640 µM) | 1000 µg/mL (≈ 3290 µM) | MIC [14]: 250 µg/mL (≈ 822 µM); MIC ([4]; 37 °C, 24 h): 250 µg/mL (≈ 822 µM); MIC [12]: 500 µg/mL (≈ 1640 µM); MBC [12]: 500 µg/mL (≈ 1640 µM); reduction of biofilm formation (biomass), in words [15]: not significantly altered; IC50 [13]: 495 ± 47 µg/mL (≈ 1630 µM); MIC [16]: 512 µg/mL (≈ 1680 µM)
